For the experiment, the target named is Substance-P receptor (Homo sapiens, UniProt P25103). Kind of experiment: Receptor Binding Assay: The buffer solution for the receptor binding test was dispensed to the wells of a 96-well assay plate (Greiner) at 22.5 μL/well. DMSO solutions of a test compound, which were prepared at an 80-time higher concentration using 100% dimethyl sulfoxide (DMSO), were added to the wells at 2.5 μL/well (final concentrations of 1 nM to 100 nM), and the solutions were mixed. As a radiolabeled ligand, 125I-substance P (Substance P, [125I]Tyr8-, PerkinElmer) was used. 125I-substance P was diluted with the buffer solution for the receptor binding test to a concentration resulting in 125 pmol/25 μL/well and added to the 96-well assay plate, and the solutions were mixed. The membrane fraction prepared from the human NK1 receptor-expressing cells was diluted with the buffer solution for the receptor binding test to a concentration resulting in 8 to 10 μg/well, suspended until the suspension became in such a homogenous state that the suspension could flow through a 27 G injection needle smoothly and then added to the 96-well assay plate at 150 μL/well. Then, the plate was incubated at room temperature for 60 minutes while shaking the plate. […].
Chain of Substance-P receptor (P25103 whole entry): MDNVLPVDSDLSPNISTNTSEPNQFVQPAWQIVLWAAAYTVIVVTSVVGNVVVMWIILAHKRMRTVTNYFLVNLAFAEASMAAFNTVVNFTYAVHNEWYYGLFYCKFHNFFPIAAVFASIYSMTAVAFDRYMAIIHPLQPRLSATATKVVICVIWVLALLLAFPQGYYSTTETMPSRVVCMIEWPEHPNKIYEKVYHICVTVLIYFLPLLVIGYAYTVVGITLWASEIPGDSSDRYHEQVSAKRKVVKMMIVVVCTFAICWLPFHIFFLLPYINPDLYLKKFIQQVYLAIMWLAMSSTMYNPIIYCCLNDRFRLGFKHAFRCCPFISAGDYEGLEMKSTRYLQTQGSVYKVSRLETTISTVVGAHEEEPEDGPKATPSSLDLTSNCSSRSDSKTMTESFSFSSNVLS

`Cc1cc(F)ccc1-c1cc(C2CCC(CC(=O)O)CC2)nc(Cl)c1N(C)C(=O)C(C)(C)c1cc(C(F)(F)F)cc(C(F)(F)F)c1` (stereo unspecified) returned an IC50 of 5.51 nM. This counts as single-digit nanomolar.

The values above are taken from ChEMBL document CHEMBL5725497, “Cyclohexyl pyridine derivative” (2017).
